Experimental data published in US20190085289A1, “COMPOSITIONS AND METHODS FOR PATHOGEN INACTIVATION OF PLATELETS” (Cerus Corporation, priority 2017, published 2019).
Marks after values point to notes of the source that are not given here.

Tests used:
[1] = system: FCV; experiment: FCV inactivation with decreasing amounts of S-59 after pre-incubation, plaque assay; assay type: cell-based, feline calicivirus (FCV); details: for FCV titer after UVA: UVA ~3 J/cm^2; for FCV log inactivation: vs 0 hr control titer 5.84
Procedure: An additional study was performed to evaluate the level of FCV inactivation with decreasing amounts of S-59 after extended incubation (e.g., pre-incubation) in PAS/Plasma. In this study, platelets in PAS/Plasma (65%/35%) were spiked with a stock of FCV at a 1:100 dilution. The FCV-spiked platelets were then split into 16 separate test units. Each unit was dosed with S-59 at approximately 150 μM, 90 μM, 30 μM or 15 μM concentration. Following the addition of S-59 in one of four dosing groups, the platelet units in each dosing group were incubated for 0, 4, 8 or 24 hr prior to illumination. A control sample was taken from each unit for virus titer determination and HPLC analysis of S-59 concentration pre-UVA treatment, followed by UVA light exposure at ˜3 J/cm^2 for photochemical treatment of the test samples. Following UVA treatment, the control and test samples were evaluated for inactivation of FCV using a standard virological plaque assay. […] Control titer at 0 hr pool used for all log inactivation calculations (5.84 log/mL).

[2] = Stability and photoconversion of S-59 in 65% PAS/35% plasma with platelets (HPLC); assay type: physicochemical; details: for S-59 UV peak area (HPLC) / S-59 concentration (HPLC): 150 μM in 65% InterSol PAS/35% plasma with platelets
Procedure: A further study evaluated stability and photoconversion of amotosalen (S-59) in PAS with added plasma, and also containing platelets. S-59 was added at a concentration of 150 μM to 65% InterSol® PAS and 35% plasma a suspended preparation of platelets, and the admixture maintained in a platelet incubator during the study time course. Samples were removed for HPLC analysis at times 0, 5, 21, 29 and 48 hours, and the mixture was then treated with ˜3 J of UVA light at 55 hours with a post-UVA sample also analyzed by HPLC for both S-59 and photoproducts. […] Peak D and Peak E photoproducts were not detected (Table 3).

[3] = system: calicivirus FCV; experiment: FCV inactivation with 150 μM S-59 after pre-incubation in PAS/Plasma, plaque assay; assay type: cell-based, feline calicivirus (FCV); details: for Normalized FCV Log Inactivation/mL / FCV Log Inactivation/mL / FCV Titer, 3J TEST: S-59 ~150 μM, UVA ~3 J/cm^2; for Normalized FCV Log Inactivation/mL: normalized to the FCV pool titer; for FCV Log Inactivation/mL: vs 0J control of same time; for FCV Titer, 3J TEST: platelets in PAS/Plasma 65%/35%
Procedure: From the results of Examples 1 and 2, showing that amotosalen is stable in PAS and PAS/Plasma, an additional study was performed that evaluated the level of inactivation of the calicivirus FCV with S-59 after extended incubation in PAS/Plasma. In this study, platelets in PAS/Plasma (65%/35%) were pooled to approximately 1320 mL, with approximately 16×10^11 total platelets, and spiked with a stock of the calicivirus FCV at a 1:100 dilution. A sample was taken from the FCV-spiked platelet pool to determine initial titer. The FCV-spiked platelets were then split into 5 units, at approximately 260 mL each, with approximately 3.2×10^11 platelets per unit. Each unit was dosed with S-59 at approximately 150 μM concentration, which is the concentration used commercially in the INTERCEPT® Blood System for pathogen inactivation treatment. Following the addition of S-59, the platelet units were incubated for 0, 2, 4, 8 or 24 hr. A control sample was taken at each time point for virus titer determination and HPLC analysis of S-59 concentration pre-UVA treatment, followed by UVA light exposure at ˜3 J/cm^2 to complete the photochemical treatment process for all test samples. Following UVA treatment, the control and test samples were evaluated for inactivation of FCV using a standard virological plaque assay.

[4] = Stability of S-59 in InterSol PAS protected from ambient light (HPLC); assay type: physicochemical; details: for S-59 UV peak area (HPLC) / S-59 concentration (HPLC): 230 μM in InterSol PAS, room temp, protected from light
Procedure: Additional studies evaluated stability of the S-59 (amotosalen) pathogen inactivation compound formulated in a platelet additive solution (PAS), but protected from ambient light exposure. A 230 μM solution of S-59 was prepared in the commercially available PAS solution InterSol® (Fenwal Inc.) and maintained at room temperature protected from ambient light conditions. HPLC analysis was performed on samples at times listed in Table 2 for both S-59 and photoproducts.

[5] = system: Caliciviruses, such as feline calicivirus (FCV); details: photochemical inactivation, Irsch et al. 2011; cited from earlier work
[6] = S-59 15 μM, pre-incubation 0 hr
[7] = S-59 15 μM, pre-incubation 4 hr
[8] = S-59 15 μM, pre-incubation 8 hr
[9] = S-59 15 μM, pre-incubation 24 hr
[10] = S-59 30 μM, pre-incubation 0 hr
[11] = S-59 30 μM, pre-incubation 4 hr
[12] = S-59 30 μM, pre-incubation 8 hr
[13] = S-59 30 μM, pre-incubation 24 hr
[14] = S-59 90 μM, pre-incubation 0 hr
[15] = S-59 90 μM, pre-incubation 4 hr
[16] = S-59 90 μM, pre-incubation 8 hr
[17] = S-59 90 μM, pre-incubation 24 hr
[18] = S-59 150 μM, pre-incubation 0 hr
[19] = S-59 150 μM, pre-incubation 4 hr
[20] = S-59 150 μM, pre-incubation 8 hr
[21] = S-59 150 μM, pre-incubation 24 hr

SMILES: Cc1oc2c(C)c3oc(=O)cc(C)c3cc2c1COCCN [S-59, 3-(2-aminoethoxymethyl)-2,5,9-trimethylfuro[3,2-g]chromen-7-one]
- FCV titer after UVA [1, 6]: 5.65 log PFU/mL
- FCV log inactivation [1, 6]: 0.19 log/mL
- FCV titer after UVA [1, 7]: 4.49 log PFU/mL
- FCV log inactivation [1, 7]: 1.35 log/mL
- FCV titer after UVA [1, 8]: 2.22 log PFU/mL
- FCV log inactivation [1, 8]: 3.62 log/mL
- FCV titer after UVA [1, 9]: 0.52 log PFU/mL
- FCV log inactivation [1, 9]: 5.32 log/mL
- FCV titer after UVA [1, 10]: 4.91 log PFU/mL
- FCV log inactivation [1, 10]: 0.93 log/mL
- FCV titer after UVA [1, 11]: 2.00 log PFU/mL
- FCV log inactivation [1, 11]: 3.84 log/mL
- FCV titer after UVA [1, 12]: <1.22 log PFU/mL
- FCV log inactivation [1, 12]: 4.62 log/mL
- FCV titer after UVA [1, 13]: <−0.22 log PFU/mL
- FCV log inactivation [1, 13]: 5.62 log/mL
- FCV titer after UVA [1, 14]: 4.90 log PFU/mL
- FCV log inactivation [1, 14]: 0.94 log/mL
- FCV titer after UVA [1, 15]: <0.22 log PFU/mL
- FCV log inactivation [1, 15]: 5.62 log/mL
- FCV titer after UVA [1, 16]: <−0.48 log PFU/mL
- FCV log inactivation [1, 16]: 5.84 log/mL
- FCV titer after UVA [1, 17]: <−0.30 log PFU/mL
- FCV log inactivation [1, 17]: 5.84 log/mL
- FCV titer after UVA [1, 18]: 4.33 log PFU/mL
- FCV log inactivation [1, 18]: 1.51 log/mL
- FCV titer after UVA [1, 19]: <0.22 log PFU/mL
- FCV log inactivation [1, 19]: 5.62 log/mL
- FCV titer after UVA [1, 20]: <−0.48 log PFU/mL
- FCV log inactivation [1, 20]: 5.84 log/mL
- FCV titer after UVA [1, 21]: <−0.48 log PFU/mL
- FCV log inactivation [1, 21]: 5.84 log/mL
- FCV inactivation ([1]; pre-incubation 4, 8 or 24 hours at 150 μM and 90 μM, 8 or 24 hours at 30 μM, 24 hours at 15 μM): greater than 4 logs
- FCV inactivation ([1]; pre-incubation 4 hr, 30 μM S-59): ~4 logs
- FCV inactivation ([1]; pre-incubation 8 hr, 15 μM S-59): greater than 3.5 logs
- S-59 UV peak area (HPLC) ([2]; platelet incubator, 5 hr): 1738.331
- S-59 concentration (HPLC) ([2]; platelet incubator, 5 hr): 149.30 µM
- S-59 UV peak area (HPLC) ([2]; platelet incubator, 21 hr): 1739.214
- S-59 concentration (HPLC) ([2]; platelet incubator, 21 hr): 147.81 µM
- S-59 UV peak area (HPLC) ([2]; platelet incubator, 29 hr): 1725.882
- S-59 concentration (HPLC) ([2]; platelet incubator, 29 hr): 148.04 µM
- S-59 UV peak area (HPLC) ([2]; platelet incubator, 48 hr): 1750.513
- S-59 concentration (HPLC) ([2]; platelet incubator, 48 hr): 148.06 µM
- S-59 UV peak area (HPLC) ([2]; platelet incubator, T 0): 1752.513
- S-59 concentration (HPLC) ([2]; platelet incubator, T 0): 148.12 µM
- S-59 UV peak area (HPLC) ([2]; 55 hr post-UVA (~3 J UVA)): 274.897
- S-59 concentration (HPLC) ([2]; 55 hr post-UVA (~3 J UVA)): 22.71 µM
- S-59 remaining in the post-UVA samples ([2]; 150 μM, 55 hour incubation in PAS/plasma with platelets, then ~3 J UVA): 15.3%
- loss of S-59 ([2]; PAS/plasma/platelets admixture, prior to the UVA treatment at 55 hours): no loss
- level of FCV inactivation ([3]; S-59/PAS/Plasma incubated 2 or more hours prior to UVA exposure): below the limit of detection
- Normalized FCV Log Inactivation/mL ([3]; pre-incubation T = 0 hr): 1.4 Log/mL
- FCV Log Inactivation/mL ([3]; pre-incubation T = 0 hr): 1.2 Log/mL
- Normalized FCV Log Inactivation/mL ([3]; pre-incubation T = 2 hr): >5.8 Log/mL
- FCV Log Inactivation/mL ([3]; pre-incubation T = 2 hr): >5.4 Log/mL
- Normalized FCV Log Inactivation/mL ([3]; pre-incubation T = 4 hr): >5.8 Log/mL
- FCV Log Inactivation/mL ([3]; pre-incubation T = 4 hr): >5.7 Log/mL
- Normalized FCV Log Inactivation/mL ([3]; pre-incubation T = 8 hr): >5.8 Log/mL
- FCV Log Inactivation/mL ([3]; pre-incubation T = 8 hr): >5.2 Log/mL
- Normalized FCV Log Inactivation/mL ([3]; pre-incubation T = 24 hr): >5.8 Log/mL
- FCV Log Inactivation/mL ([3]; pre-incubation T = 24 hr): >5.1 Log/mL
- FCV Titer, 3J TEST ([3]; pre-incubation T = 0 hr): 4.6 Log PFU/mL
- FCV Titer, 3J TEST ([3]; pre-incubation T = 2 hr): <0.22* Log PFU/mL
- FCV Titer, 3J TEST ([3]; pre-incubation T = 4 hr): <0.22* Log PFU/mL
- FCV Titer, 3J TEST ([3]; pre-incubation T = 8 hr): <0.22* Log PFU/mL
- FCV Titer, 3J TEST ([3]; pre-incubation T = 24 hr): <0.22* Log PFU/mL
- S-59 UV peak area (HPLC) ([4]; 5.5 hr): 3451.6489
- S-59 concentration (HPLC) ([4]; 5.5 hr): 232.74 µM
- S-59 UV peak area (HPLC) ([4]; 21.5 hr): 3439.4907
- S-59 concentration (HPLC) ([4]; 21.5 hr): 231.93 µM
- S-59 UV peak area (HPLC) ([4]; 28.5 hr): 3421.447
- S-59 concentration (HPLC) ([4]; 28.5 hr): 230.72 µM
- S-59 UV peak area (HPLC) ([4]; 44 hr): 3425.1028
- S-59 concentration (HPLC) ([4]; 44 hr): 230.96 µM
- S-59 UV peak area (HPLC) ([4]; 45.5 hr): 3399.0142
- S-59 concentration (HPLC) ([4]; 45.5 hr): 229.22 µM
- S-59 UV peak area (HPLC) ([4]; 53 hr): 3421.4934
- S-59 concentration (HPLC) ([4]; 53 hr): 230.72 µM
- S-59 UV peak area (HPLC) ([4]; 77 hr): 3446.6414
- S-59 concentration (HPLC) ([4]; 77 hr): 232.41 µM
- S-59 UV peak area (HPLC) ([4]; T 0): 3393.0647
- S-59 concentration (HPLC) ([4]; T 0): 228.82 µM
- loss of S-59 ([4]; InterSol PAS, protected from ambient light, at 77 hours): no loss
- log10 reduction in titer [5]: 1.7-2.4 log10
